Where two headings read alike, the source gives them in different places.
Columns and labels:
hKOR [1] = biological target: T1, hKOR (Homo sapiens, UniProt P41145); experiment: Tango β-arrestin recruitment assay, hKOR; format: cell-based
T1 construct: expressed in transfected cells; host or cells: HEK 293T (ATCC CRL-11268), transient

[2] = biological target: T2, rat kappa opioid receptor (rKOR) (Rattus norvegicus, UniProt P34975); experiment: BRET assay, G-protein activation, rKOR; format: cell-based; details: for Bias factor toward G-protein, rKOR: BRET assays, against U50,488H as control; for EC50: read-out: Gi EC50 rKOR
T2 construct: expressed in transfected cells; host or cells: HEK-293T, transient (PEI), with BRET sensor cDNAs

[3] = biological target: T3, mouse mu opioid receptor (mMOR) (Mus musculus, UniProt P42866); experiment: cell-based; format: cell-based; details: for EC50: read-out: Gi EC50 mMOR
T3 construct: expressed in transfected cells; host or cells: HEK-293T, transient (PEI), with BRET sensor cDNAs

[4] = biological target: T4, mouse delta opioid receptor (mDOR) (Mus musculus, UniProt P32300); experiment: BRET assay, G-protein activation, mDOR; format: cell-based
T4 construct: expressed in transfected cells; host or cells: HEK-293T, transient (PEI), with BRET sensor cDNAs

mDOR [5] = biological target: T5, mDOR (Mus musculus, UniProt P32300); experiment: Radioligand competition binding ([125I]IBNtxA), CHO membranes, mDOR; details: vs 125IBNtxA (0.1 nM), CHO membranes, mean ± SEM
T5 construct: expressed in transfected cells

hMOR [6] = biological target: T6, hMOR (Homo sapiens, UniProt P35372); experiment: Tango β-arrestin recruitment assay, hMOR; format: cell-based
T6 construct: expressed in transfected cells; host or cells: HEK 293T (ATCC CRL-11268), transient

[7] = biological target: T4, mouse delta opioid receptor (mDOR); experiment: BRET assay, arrestin recruitment, mDOR; format: cell-based
mDOR [8] = biological target: T5, mDOR; experiment: [35S]GTPγS functional assay, mDOR; format: biochemical; details: for EC50: nM ± SEM
mMOR [9] = biological target: T7, mMOR (Mus musculus, UniProt P42866); experiment: Radioligand competition binding ([125I]IBNtxA), CHO membranes, mMOR; details: vs 125IBNtxA (0.1 nM), mean ± SEM
T7 construct: expressed in transfected cells

hDOR [10] = biological target: T8, hDOR (Homo sapiens, UniProt P41143); experiment: cAMP inhibition assay, hDOR; format: cell-based; parameters: expressed in transfected cells
hMOR [11] = biological target: T6, hMOR; experiment: cell-based; format: cell-based; details: for EC50: read-out: Gi EC50 hMOR
mKOR [12] = biological target: T9, mKOR (Mus musculus, UniProt P33534); experiment: [35S]GTPγS functional assay, mKOR; format: biochemical; details: for EC50: nM ± SEM
T9 construct: expressed in transfected cells

[13] = biological target: T2, rat kappa opioid receptor (rKOR); experiment: BRET assay, arrestin recruitment, rKOR; format: cell-based
hKOR [14] = biological target: T1, hKOR; experiment: cAMP inhibition assay (GloSensor, HEK 293T), hKOR; format: cell-based; details: for Bias factor toward G protein, hKOR: cAMP inhibition vs Tango, against U50,488H as control
[15] = biological target: T3, mouse mu opioid receptor (mMOR); experiment: cell-based; format: cell-based
mKOR [16] = biological target: T9, mKOR; experiment: Radioligand competition binding ([125I]IBNtxA), CHO membranes, mKOR; details: vs 125IBNtxA (0.1 nM), mean ± SEM
hDOR [17] = biological target: T8, hDOR; experiment: Tango β-arrestin recruitment assay, hDOR; format: cell-based; parameters: expressed in transfected cells; host or cells: HTLA cells expressing TEV fused-beta-Arrestin2
mMOR [18] = biological target: T7, mMOR; experiment: [35S]GTPγS functional assay, mMOR; format: biochemical; details: for EC50: nM ± SEM
[19] = read-out: Arrestin recruitment Emax % ± SEM
[20] = BRET, normalized to Emax of U50,488H
[21] = mDOR, BRET, normalized to DPDPE

Question: With O=C(N[C@@H]1CC[C@@]2(O)C3Cc4ccc(O)cc4[C@@]2(CCN3CC2CC2)C1)c1cccc(I)c1 [MP1601, N-((4bR,6R,8aS)-11-(Cyclopropylmethyl)-3,8a-dihydroxy-6,7,8,8a,9,10-hexahydro-5H-9,4b-(epiminoethano)phenanthren-6-yl)-3-iodobenzamide] as the compound, how does the Emax (hKOR [1]) read?
Answer: 107 ± 3%

Question: What about the “Arrestin pEC50±SEM hKOR” value (hKOR [1]; Tango, WT-hKOR) of the same compound?
Answer: 8.49±0.07

Question: What about the “Gi pEC50±SEM rKOR” value ([2]; BRET) of the same compound?
Answer: 8.1±0.12

Question: What about the “Bias factor toward G-protein, rKOR” value [2] of the same compound?
Answer: 0.9

Question: And the EC50 ([2]; BRET)?
Answer: 8.9 nM

Question: What about the Emax ([2]; read-out: Gi Emax rKOR) of the same compound?
Answer: 75 ± 3%

Question: And the “Gi pEC50±SEM mMOR” value [3]?
Answer: 8.6±0.3

Question: And the EC50 [3]?
Answer: 2.2 nM

Question: And the Emax ([3]; read-out: Gi Emax mMOR)?
Answer: 49 ± 3%

Question: What about the “G-Protein activation pEC50 ± SEM” value ([4]; mDOR, BRET) of the same compound?
Answer: 8.2 ± 0.20

Question: And the Emax ([4]; read-out: G-Protein activation Emax % ± SEM)?
Answer: 105 ± 6.7%

Question: And the Ki (mDOR [5])?
Answer: 5.37 ± 0.9 nM

Question: And the Emax (hMOR [6])?
Answer: 27 ± 2%

Question: What about the “Arrestin pEC50±SEM hMOR” value (hMOR [6]; Tango) of the same compound?
Answer: 8.4±0.2

Question: What about the EC50 ([7]; mDOR, BRET) of the same compound?
Answer: 9 nM

Question: And the Emax [7, 19]?
Answer: 16 ± 1.4%

Question: What about the Emax (mDOR [8]) of the same compound?
Answer: 67 ± 3.9%

Question: What about the EC50 (mDOR [8]; [35S]GTPγS) of the same compound?
Answer: 10 ± 1.6 nM

Question: And the Ki (mMOR [9])?
Answer: 0.2 ± 0.01 nM

Question: And the EC50 (hDOR [10]; hDOR)?
Answer: 2.76 nM

Question: And the “cAMP inhibition pEC50 ± SEM” value (hDOR [10]; hDOR)?
Answer: 8.6 ± 0.06

Question: What about the Emax (hDOR [10]; read-out: cAMP inhibition Emax % ± SEM) of the same compound?
Answer: 106 ± 2.3%

Question: And the “Bias factor toward G protein, hMOR” value (hMOR [11])?
Answer: 4

Question: And the “Gi pEC50±SEM hMOR” value (hMOR [11])?
Answer: 9.99±0.09

Question: What about the Emax (hMOR [11]; HEK-293T, read-out: Gi Emax hMOR) of the same compound?
Answer: 69 ± 1%

Question: And the EC50 (hMOR [11])?
Answer: 0.1 nM

Question: And the Emax (mKOR [12])?
Answer: 72 ± 4.5%

Question: And the EC50 (mKOR [12]; [35S]GTPγS)?
Answer: 3 ± 0.7 nM

Question: And the Emax [13]?
Answer: 37 ± 3%

Question: And the “Arrestin pEC50±SEM rKOR” value ([13]; BRET)?
Answer: 7.2±0.23

Question: And the EC50 ([13]; BRET)?
Answer: 56.5 nM

Question: What about the Emax (hKOR [14]; HEK-293T, read-out: Gi Emax hKOR) of the same compound?
Answer: 109 ± 1%

Question: And the “Gi pEC50±SEM hKOR” value (hKOR [14]; cAMP inhibition)?
Answer: 9.76±0.05

Question: What about the “Bias factor toward G protein, hKOR” value (hKOR [14]) of the same compound?
Answer: 0.15

Question: And the EC50 (hKOR [14]; cAMP inhibition, read-out: Gi EC50 hKOR)?
Answer: 0.17 nM

Question: And the “arrestin recruitment at mMOR” value [15]?
Answer: no arrestin recruitment was observed

Question: And the Ki (mKOR [16])?
Answer: 2.13 ± 0.3 nM

Question: And the “Arrestin recruitment pEC50 ± SEM” value (hDOR [17]; hDOR, Tango)?
Answer: 7.1 ± 0.06

Question: And the EC50 (hDOR [17]; hDOR, Tango)?
Answer: 86.7 nM

Question: And the Emax (hDOR [17]; [19])?
Answer: 203 ± 5.4%

Question: And the Emax (mMOR [18])?
Answer: 45 ± 4.6%

Question: What about the EC50 (mMOR [18]; [35S]GTPγS) of the same compound?
Answer: 0.5 ± 0.2 nM

Question: What does the source list for O=C(N[C@@H]1CC[C@@]2(O)[C@H]3Cc4ccc(O)c5c4[C@@]2(CCN3CC2CC2)[C@H]1O5)c1cccc(I)c1 [IBNtxA, reference compound]?
Answer: Arrestin pEC50±SEM hKOR (hKOR [1]; Tango, WT-hKOR): 10.9±0.07; EC50 (hKOR [1]; Tango, WT-hKOR): 0.013 nM; Arrestin Emax hKOR (hKOR [1]; Tango, normalized to Emax of U50,488H): 109±1.8; Gi pEC50±SEM rKOR ([2]; BRET): 10.2±0.1; Bias factor toward G-protein, rKOR [2]: 0.6; Gi Emax rKOR [2, 20]: 101±2.3; EC50 ([2]; BRET): 0.064 nM; Bias factor toward G-protein, mMOR [3]: 404; Gi Emax mMOR [3]: 59±2.2; Gi pEC50±SEM mMOR [3]: 10.3±0.02; EC50 [3]: 0.054 nM; EC50 ([4]; mDOR, BRET): 0.48 nM; G-Protein activation pEC50 ± SEM ([4]; mDOR, BRET): 9.3 ± 0.10; G-Protein activation Emax % ± SEM [4, 21]: 108 ± 3.7%; Ki (mDOR [5]): 0.24 ± 0.05 nM; Arrestin pEC50±SEM hMOR (hMOR [6]; Tango): 8.2±0.002; EC50 (hMOR [6]; Tango): 5.86 nM; Arrestin Emax hMOR (hMOR [6]; Tango, normalized to Emax of DAMGO): 29±0.02; Arrestin recruitment pEC50 ± SEM ([7]; mDOR, BRET): 7.5 ± 0.2; EC50 ([7]; mDOR, BRET): 26.6 nM; Arrestin recruitment Emax % ± SEM [7, 21]: 88 ± 6.8%; EC50 (mDOR [8]; [35S]GTPγS): 4.08 ± 0.67 nM; mDOR Emax (mDOR [8]; [35S]GTPγS, relative to DPDPE): 95 ± 2%; Ki (mMOR [9]): 0.11 ± 0.02 nM; EC50 (hDOR [10]; hDOR): 0.43 nM; cAMP inhibition pEC50 ± SEM (hDOR [10]; hDOR): 9.3 ± 0.03; cAMP inhibition Emax % ± SEM (hDOR [10]; hDOR, normalized to DPDPE or DADLE): 106 ± 1%; Bias factor toward G protein, hMOR (hMOR [11]): 23; Gi Emax hMOR (hMOR [11]): 95±2; Gi pEC50±SEM hMOR (hMOR [11]): 10.2±0.006; EC50 (hMOR [11]): 0.07 nM; EC50 (mKOR [12]; [35S]GTPγS): 0.22 ± 0.02 nM; mKOR Emax (mKOR [12]; [35S]GTPγS, relative to U50,488H): 102 ± 4%; Arrestin pEC50±SEM rKOR ([13]; BRET): 8.9±0.02; EC50 ([13]; BRET): 1.23 nM; Arrestin Emax rKOR [13, 20]: 133±7.3; Bias factor toward G protein, hKOR (hKOR [14]): 0.2; Gi Emax hKOR (hKOR [14]; cAMP inhibition, normalized to Emax of U50,488H): 106±0.7; Arrestin Emax mMOR [15]: 75±13.9; Arrestin pEC50±SEM mMOR [15]: 4.9±0.3; EC50 ([15]; read-out: Arrestin EC50 mMOR): 11300 nM; Ki (mKOR [16]): 0.03 ± 0.001 nM; Arrestin recruitment pEC50 ± SEM (hDOR [17]; hDOR, Tango): 7.8 ± 0.06; EC50 (hDOR [17]; hDOR, Tango): 14.1 nM; Arrestin recruitment Emax % ± SEM (hDOR [17]; hDOR, Tango, normalized to DPDPE or DADLE): 224 ± 5%; EC50 (mMOR [18]; [35S]GTPγS): 0.49 ± 0.12 nM; mMOR Emax (mMOR [18]; [35S]GTPγS, relative to DAMGO): 101 ± 3%

Source: US11613547B2 (priority 2019, dated 2023)
